This note sets out measurements from patent EP2365972B1, “MODULATORS OF ATP-BINDING CASSETTE TRANSPORTERS” (Vertex Pharmaceuticals Incorporated, priority 2008, dated 2010).

The target in the experiment is T1, ΔF508-CFTR (Homo sapiens, UniProt P13569, DEL508-508).
T1 construct: expressed in transfected cells
Kind of experiment: Membrane potential optical assay for ΔF508-CFTR correction (single-addition HTS format). To be noted: NIH 3T3 cells expressing ΔF508-CFTR, 16-24 hrs with test compound, 10 µM forskolin and genistein (20 µM); for Emax: NIH3T3, read-out: Binned Max Efficacy; for EC50: read-out: Binned EC50. It is filed as cell-based. The source says: Membrane potential optical methods for assaying ΔF508-CFTR modulation properties of compounds.
The assay utilizes fluorescent voltage sensing dyes to measure changes in membrane potential using a fluorescent plate reader (e.g., FLIPR III, Molecular Devices, Inc.) as a readout for increase in functional ΔF508-CFTR in NIH 3T3 cells. The driving force for the response is the creation of a chloride ion gradient in conjunction with channel activation by a single liquid addition step after the cells have previously been treated with compounds and subsequently loaded with a voltage sensing dye.
To identify small molecules that correct the trafficking defect associated with ΔF508-CFTR; a single-addition HTS assay format was developed. Assay Plates containing cells are incubated for ∼2-4 hours in tissue culture incubator at 37°C, 5%CO2, 90% humidity. Cells are then ready for compound exposure after adhering to the bottom of the assay plates.
The cells were incubated in serum-free medium for 16-24 hrs in tissue culture incubator at 37°C, 5%CO2, 90% humidity in the presence or absence (negative control) of test compound. The cells were subsequently rinsed 3X with Krebs Ringers solution and loaded with a voltage sensing redistribution dye. To activate ΔF508-CFTR, 10 µM forskolin and the CFTR potentiator, genistein (20 µM), were added along with Cl^--free medium to each well. The addition of Cl^--free medium promoted Cl^- efflux in response to ΔF508-CFTR activation and the resulting membrane depolarization was optically monitored using voltage sensor dyes.
Bath Solution #1: (in mM) NaCl 160, KCl 4.5, CaCl2 2, MgCl2 1, HEPES 10, pH 7.4 with NaOH.
Chloride-free bath solution: Chloride salts in Bath Solution #1 are substituted with gluconate salts.
NIH3T3 mouse fibroblasts stably expressing ΔF508-CFTR are used for optical measurements of membrane potential. The cells are maintained at 37 °C in 5% CO2 and 90 % humidity in Dulbecco's modified Eagle's medium supplemented with 2 mM glutamine, 10 % fetal bovine serum, 1 X NEAA, β-ME, 1 X pen/strep, and 25 mM HEPES in 175 cm^2 culture flasks. For all optical assays, the cells were seeded at […] in 384-well matrigel-coated plates and cultured for 2 hrs at 37 °C before culturing at 27 °C for 24 hrs. for the potentiator assay. For the correction assays, the cells are cultured at 27 °C or 37 °C with and without compounds for 16 - 24 hours.

T1 sequence (P13569 with tags, fused parts or gaps DEL508-508): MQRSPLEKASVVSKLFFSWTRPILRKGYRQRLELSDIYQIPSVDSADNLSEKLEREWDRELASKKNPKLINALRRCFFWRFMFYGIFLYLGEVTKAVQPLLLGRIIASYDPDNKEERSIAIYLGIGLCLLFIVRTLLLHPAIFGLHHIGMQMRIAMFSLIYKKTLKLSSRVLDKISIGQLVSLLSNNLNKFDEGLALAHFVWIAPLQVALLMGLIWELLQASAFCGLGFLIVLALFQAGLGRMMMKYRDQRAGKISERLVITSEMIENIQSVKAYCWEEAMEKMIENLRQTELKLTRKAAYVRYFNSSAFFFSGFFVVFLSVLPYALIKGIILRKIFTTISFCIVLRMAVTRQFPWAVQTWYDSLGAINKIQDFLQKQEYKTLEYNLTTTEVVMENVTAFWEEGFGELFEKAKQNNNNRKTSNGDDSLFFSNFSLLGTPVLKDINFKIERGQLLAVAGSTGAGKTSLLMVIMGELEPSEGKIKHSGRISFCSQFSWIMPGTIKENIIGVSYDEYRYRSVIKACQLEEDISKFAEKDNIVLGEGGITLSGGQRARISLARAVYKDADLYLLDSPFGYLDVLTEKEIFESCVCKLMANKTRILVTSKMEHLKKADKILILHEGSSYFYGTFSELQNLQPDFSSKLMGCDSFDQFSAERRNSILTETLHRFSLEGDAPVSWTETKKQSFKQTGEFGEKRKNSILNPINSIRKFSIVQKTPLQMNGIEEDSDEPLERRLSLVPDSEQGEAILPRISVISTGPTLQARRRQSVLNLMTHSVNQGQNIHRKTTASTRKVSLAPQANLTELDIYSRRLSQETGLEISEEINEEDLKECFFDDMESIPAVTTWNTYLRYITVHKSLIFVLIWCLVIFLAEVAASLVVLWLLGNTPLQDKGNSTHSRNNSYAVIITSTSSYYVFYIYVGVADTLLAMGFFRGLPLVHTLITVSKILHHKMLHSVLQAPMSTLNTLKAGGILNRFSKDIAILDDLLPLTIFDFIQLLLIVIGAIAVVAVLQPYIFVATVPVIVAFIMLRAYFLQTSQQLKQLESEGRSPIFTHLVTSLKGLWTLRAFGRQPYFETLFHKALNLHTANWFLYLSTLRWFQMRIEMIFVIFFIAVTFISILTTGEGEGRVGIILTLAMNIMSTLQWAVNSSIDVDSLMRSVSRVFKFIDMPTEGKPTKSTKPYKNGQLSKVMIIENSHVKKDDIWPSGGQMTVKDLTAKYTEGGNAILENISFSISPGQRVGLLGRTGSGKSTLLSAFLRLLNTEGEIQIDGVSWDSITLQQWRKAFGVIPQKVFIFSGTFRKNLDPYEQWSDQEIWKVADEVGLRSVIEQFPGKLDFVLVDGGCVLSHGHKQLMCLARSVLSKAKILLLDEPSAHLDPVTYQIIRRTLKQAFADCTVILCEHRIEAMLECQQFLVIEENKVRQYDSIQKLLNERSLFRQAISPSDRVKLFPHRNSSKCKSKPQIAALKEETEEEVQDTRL

Regarding `CC(C)(CCOC[C@@H](O)CO)c1cc2cc(NC(=O)C3(c4ccc5c(c4)OC(F)(F)O5)CC3)c(F)cc2[nH]1` [Compound 309, (S)-1-(2,2-difluorobenzo[d][1,3]dioxol-5-yl)-N-(2-(4-(2,3-dihydroxypropoxy)-2-methylbutan-2-yl)-6-fluoro-1H-indol-5-yl)cyclopropanecarboxamide], the Emax is above 100% and the EC50 is below 2000 nM.

In the case of “2-(2-tert-butyl-5-(1-(2,2-difluorobenzo[d][1,3]dioxol-5-yl)cyclopropanecarboxamido)-6-fluoro-1H-indol-1-yl)-N,N,N-trimethylethanaminium chloride [Compound 308]”, the “Binned Max Efficacy” value was “+++ ("+++" means > 100%)” and the EC50 was 2000 to 5000 nM.

Turning to `CC(C)(C)c1cc2cc(NC(=O)C3(c4ccc5c(c4)OCO5)CC3)c(F)cc2n1CC(O)CO` (stereo not drawn) [Compound 318], the Emax is above 100% and the EC50 is below 2000 nM.

Turning to `CC(C)(C)c1cc2c(C#N)c(NC(=O)C3(c4ccc5c(c4)OC(F)(F)O5)CC3)ccc2n1CCO` [Compound 315, N-(2-tert-butyl-4-cyano-1-(2-hydroxyethyl)-1H-indol-5-yl)-1-(2,2-difluorobenzo[d][1,3]dioxol-5-yl)cyclopropanecarboxamide], the Emax was above 100% and the EC50 was below 2000 nM.

In the case of `CC(C)(CCO)c1cc2cc(NC(=O)C3(c4ccc5c(c4)OC(F)(F)O5)CC3)c(F)cc2n1C[C@@H](O)CO` [Compound 311, (R)-1-(2,2-difluorobenzo[d][1,3]dioxol-5-yl)-N-(1-(2,3-dihydroxypropyl)-6-fluoro-2-(4-hydroxy-2-methylbutan-2-yl)-1H-indol-5-yl)cyclopropanecarboxamide], the Emax was above 100% and the EC50 was below 2000 nM.

Regarding `CC(C)(CCOC[C@@H](O)CO)c1cc2cc(NC(=O)C3(c4ccc5c(c4)OC(F)(F)O5)CC3)c(F)cc2n1C[C@@H](O)CO` [Compound 310, 1-(2,2-difluorobenzo[d][1,3]dioxol-5-yl)-N-(2-(4-((S)-2,3-dihydroxypropoxy)-2-methylbutan-2-yl)-1-((R)-2,3-dihydroxypropyl)-6-fluoro-1H-indol-5-yl)cyclopropanecarboxamide], the Emax is above 100% and the EC50 was below 2000 nM.
